# In PubChem BioAssay AID2060884 (Molecular Pharmacology Branch, DTP, NCI, 2025):
# Test system: NCI-H929 complex spheroids, viability % test/control
# Test: Anticancer human tumor NCI-H929 cell line growth inhibition [RAS];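 further: compound exposure lasted seven days before viability was read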;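 on viability, T/C: 100% = DMSO vehicle control viability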
# Conditions: for IC50: curve of first compound; for viability, T/C: stronger effect = lower value
# Procedure, shortened: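 Agents were tested in combination matrices in half-log decrements from a top concentration at or near clinical Cmax (10 microM if undetermined). Targets were multi-cell spheroids of tumour lines plus HUVEC and MSC stromal cells.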
# [1] = second compound 0.00316 µM, first compound 0.00316 µM
# [2] = second compound 0.00316 µM, first compound 0.01 µM
# [3] = second compound 0.00316 µM, first compound 0.0316 µM
# [4] = second compound 0.00316 µM, first compound 0.1 µM
# [5] = second compound 0.01 µM, first compound 0.00316 µM
# [6] = second compound 0.01 µM, first compound 0.01 µM
# [7] = second compound 0.01 µM, first compound 0.0316 µM
# [8] = second compound 0.01 µM, first compound 0.1 µM
# [9] = second compound 0.0316 µM, first compound 0.00316 µM
# [10] = second compound 0.0316 µM, first compound 0.01 µM
# [11] = second compound 0.0316 µM, first compound 0.0316 µM
# [12] = second compound 0.0316 µM, first compound 0.1 µM
# [13] = second compound 0.1 µM, first compound 0.00316 µM
# [14] = second compound 0.1 µM, first compound 0.01 µM
# [15] = second compound 0.1 µM, first compound 0.0316 µM
# [16] = second compound 0.1 µM, first compound 0.1 µM
# [17] = second compound 0.316 µM, first compound 0.00316 µM
# [18] = second compound 0.316 µM, first compound 0.01 µM
# [19] = second compound 0.316 µM, first compound 0.0316 µM
# [20] = second compound 0.316 µM, first compound 0.1 µM
# [21] = second compound 1 µM, first compound 0.00316 µM
# [22] = second compound 1 µM, first compound 0.01 µM
# [23] = second compound 1 µM, first compound 0.0316 µM
# [24] = second compound 1 µM, first compound 0.1 µM
structure (smiles),measurement,setting,value
CCN1CCN(Cc2ccc(Nc3ncc(F)c(-c4cc(F)c5nc(C)n(C(C)C)c5c4)n3)nc2)CC1 + C=CC(=O)N1CCN(c2nc(OCC3CCCN3C)nc3c(F)c(-c4nc(N)cc(C)c4C(F)(F)F)c(Cl)cc23)C(C)C1,IC50,second compound 0.00316 µM,> 1000 nM
same,IC50,second compound 0.01 µM,> 1000 nM
same,IC50,second compound 0.0316 µM,> 1000 nM
same,IC50,second compound 0.1 µM,> 1000 nM
same,IC50,second compound 0.316 µM,> 1000 nM
same,IC50,second compound 1 µM,> 1000 nM
same,"viability, T/C",[1],99.6%
same,"viability, T/C",[2],97.4%
same,"viability, T/C",[3],108%
same,"viability, T/C",[4],103%
same,"viability, T/C","second compound 0.00316 µM, first compound 0.316 µM",117%
same,"viability, T/C","second compound 0.00316 µM, first compound 1 µM",107%
same,"viability, T/C",[5],100%
same,"viability, T/C",[6],105%
same,"viability, T/C",[7],105%
same,"viability, T/C",[8],109%
same,"viability, T/C","second compound 0.01 µM, first compound 0.316 µM",118%
same,"viability, T/C","second compound 0.01 µM, first compound 1 µM",115%
same,"viability, T/C",[9],102%
same,"viability, T/C",[10],103%
same,"viability, T/C",[11],112%
same,"viability, T/C",[12],109%
same,"viability, T/C","second compound 0.0316 µM, first compound 0.316 µM",119%
same,"viability, T/C","second compound 0.0316 µM, first compound 1 µM",113%
same,"viability, T/C",[13],95.8%
same,"viability, T/C",[14],105%
same,"viability, T/C",[15],108%
same,"viability, T/C",[16],112%
same,"viability, T/C","second compound 0.1 µM, first compound 0.316 µM",119%
same,"viability, T/C","second compound 0.1 µM, first compound 1 µM",111%
same,"viability, T/C",[17],102%
same,"viability, T/C",[18],105%
same,"viability, T/C",[19],113%
same,"viability, T/C",[20],113%
same,"viability, T/C","second compound 0.316 µM, first compound 0.316 µM",119%
same,"viability, T/C","second compound 0.316 µM, first compound 1 µM",115%
same,"viability, T/C",[21],108%
same,"viability, T/C",[22],111%
same,"viability, T/C",[23],112%
same,"viability, T/C",[24],114%
same,"viability, T/C","second compound 1 µM, first compound 0.316 µM",120%
same,"viability, T/C","second compound 1 µM, first compound 1 µM",101%
CC(C)n1nc(-c2ccc3oc(N)nc3c2)c2c(N)ncnc21 + C=CC(=O)N1CCN(c2nc(OCC3CCCN3C)nc3c(F)c(-c4nc(N)cc(C)c4C(F)(F)F)c(Cl)cc23)C(C)C1,IC50,second compound 0.00316 µM,63.2 nM
same,IC50,second compound 0.01 µM,64.7 nM
same,IC50,second compound 0.0316 µM,65 nM
same,IC50,second compound 0.1 µM,64.2 nM
same,IC50,second compound 0.316 µM,65.5 nM
same,IC50,second compound 1 µM,64.4 nM
same,"viability, T/C","second compound 0.00316 µM, first compound 0.000316 µM",102%
same,"viability, T/C","second compound 0.00316 µM, first compound 0.001 µM",104%
same,"viability, T/C",[1],112%
same,"viability, T/C",[2],111%
same,"viability, T/C",[3],118%
same,"viability, T/C",[4],10.6%
same,"viability, T/C","second compound 0.01 µM, first compound 0.000316 µM",102%
same,"viability, T/C","second compound 0.01 µM, first compound 0.001 µM",107%
same,"viability, T/C",[5],109%
same,"viability, T/C",[6],114%
same,"viability, T/C",[7],122%
same,"viability, T/C",[8],13%
same,"viability, T/C","second compound 0.0316 µM, first compound 0.000316 µM",98.6%
same,"viability, T/C","second compound 0.0316 µM, first compound 0.001 µM",106%
same,"viability, T/C",[9],112%
same,"viability, T/C",[10],117%
same,"viability, T/C",[11],126%
same,"viability, T/C",[12],12.9%
same,"viability, T/C","second compound 0.1 µM, first compound 0.000316 µM",95.4%
same,"viability, T/C","second compound 0.1 µM, first compound 0.001 µM",106%
same,"viability, T/C",[13],115%
same,"viability, T/C",[14],117%
same,"viability, T/C",[15],122%
same,"viability, T/C",[16],11.6%
same,"viability, T/C","second compound 0.316 µM, first compound 0.000316 µM",107%
same,"viability, T/C","second compound 0.316 µM, first compound 0.001 µM",111%
same,"viability, T/C",[17],109%
same,"viability, T/C",[18],119%
same,"viability, T/C",[19],120%
same,"viability, T/C",[20],13.3%
same,"viability, T/C","second compound 1 µM, first compound 0.000316 µM",114%
same,"viability, T/C","second compound 1 µM, first compound 0.001 µM",110%
same,"viability, T/C",[21],112%
same,"viability, T/C",[22],117%
same,"viability, T/C",[23],120%
same,"viability, T/C",[24],9.93%
CC1(O)CCCC1n1c(=O)c(C(F)F)cc2cnc(NC3CCN(S(C)(=O)=O)CC3)nc21 (stereo unspecified) + CCn1c(-c2cccnc2C(C)OC)c2c3cc(ccc31)N1CCOC(CC(NC(=O)C(C(C)C)N(C)C(=O)C3(F)CCN(C(=O)C#CC(C)(C)N(C)C)CC3)C(=O)N3CCCC(N3)C(=O)OCC(C)(C)C2)C1,IC50,second compound 0.000949 µM,75.4 nM
same,IC50,second compound 0.003 µM,76.5 nM
same,IC50,second compound 0.00949 µM,74.3 nM
same,IC50,second compound 0.03 µM,71 nM
same,IC50,second compound 0.0949 µM,67.7 nM
same,IC50,second compound 0.3 µM,62.4 nM
same,"viability, T/C","second compound 0.000949 µM, first compound 0.0316 µM",104%
same,"viability, T/C","second compound 0.000949 µM, first compound 0.1 µM",32.6%
same,"viability, T/C","second compound 0.000949 µM, first compound 0.316 µM",1.35%
same,"viability, T/C","second compound 0.000949 µM, first compound 1 µM",2.44%
same,"viability, T/C","second compound 0.000949 µM, first compound 3.16 µM",1.45%
same,"viability, T/C","second compound 0.000949 µM, first compound 10 µM",0.12%
same,"viability, T/C","second compound 0.003 µM, first compound 0.0316 µM",100%
same,"viability, T/C","second compound 0.003 µM, first compound 0.1 µM",34.8%
same,"viability, T/C","second compound 0.003 µM, first compound 0.316 µM",1.28%
same,"viability, T/C","second compound 0.003 µM, first compound 1 µM",2.8%
same,"viability, T/C","second compound 0.003 µM, first compound 3.16 µM",1.23%
same,"viability, T/C","second compound 0.003 µM, first compound 10 µM",0.1%
same,"viability, T/C","second compound 0.00949 µM, first compound 0.0316 µM",98.1%
same,"viability, T/C","second compound 0.00949 µM, first compound 0.1 µM",33.3%
same,"viability, T/C","second compound 0.00949 µM, first compound 0.316 µM",0.97%
same,"viability, T/C","second compound 0.00949 µM, first compound 1 µM",2.52%
same,"viability, T/C","second compound 0.00949 µM, first compound 3.16 µM",1.36%
same,"viability, T/C","second compound 0.00949 µM, first compound 10 µM",0.09%
same,"viability, T/C","second compound 0.03 µM, first compound 0.0316 µM",99.8%
same,"viability, T/C","second compound 0.03 µM, first compound 0.1 µM",28.9%
same,"viability, T/C","second compound 0.03 µM, first compound 0.316 µM",1.21%
same,"viability, T/C","second compound 0.03 µM, first compound 1 µM",2.78%
same,"viability, T/C","second compound 0.03 µM, first compound 3.16 µM",1.08%
same,"viability, T/C","second compound 0.03 µM, first compound 10 µM",0.11%
same,"viability, T/C","second compound 0.0949 µM, first compound 0.0316 µM",99.9%
same,"viability, T/C","second compound 0.0949 µM, first compound 0.1 µM",24.5%
same,"viability, T/C","second compound 0.0949 µM, first compound 0.316 µM",1.16%
same,"viability, T/C","second compound 0.0949 µM, first compound 1 µM",2.55%
same,"viability, T/C","second compound 0.0949 µM, first compound 3.16 µM",1.28%
same,"viability, T/C","second compound 0.0949 µM, first compound 10 µM",0.12%
same,"viability, T/C","second compound 0.3 µM, first compound 0.0316 µM",103%
same,"viability, T/C","second compound 0.3 µM, first compound 0.1 µM",13.5%
same,"viability, T/C","second compound 0.3 µM, first compound 0.316 µM",1.13%
same,"viability, T/C","second compound 0.3 µM, first compound 1 µM",2.31%
same,"viability, T/C","second compound 0.3 µM, first compound 3.16 µM",1.74%
same,"viability, T/C","second compound 0.3 µM, first compound 10 µM",0.16%
